According to paper PMC12564180 (International Journal of Molecular Sciences, 2025):

Assays:
[1] = Incubation of 1 µM [3H]filapixant in human liver microsomes with CYP isoform-selective inhibitors; format: in vitro ADME
[2] = target: T1, CYP1A1 (Homo sapiens, UniProt P04798); test: Incubation of filapixant with human recombinant CYP1A1 (Supersomes); format: in vitro ADME; details: 1 µM [3H]filapixant, CYP1A1, 60 min
T1 construct: purchased
T1 sequence (P04798 1-512): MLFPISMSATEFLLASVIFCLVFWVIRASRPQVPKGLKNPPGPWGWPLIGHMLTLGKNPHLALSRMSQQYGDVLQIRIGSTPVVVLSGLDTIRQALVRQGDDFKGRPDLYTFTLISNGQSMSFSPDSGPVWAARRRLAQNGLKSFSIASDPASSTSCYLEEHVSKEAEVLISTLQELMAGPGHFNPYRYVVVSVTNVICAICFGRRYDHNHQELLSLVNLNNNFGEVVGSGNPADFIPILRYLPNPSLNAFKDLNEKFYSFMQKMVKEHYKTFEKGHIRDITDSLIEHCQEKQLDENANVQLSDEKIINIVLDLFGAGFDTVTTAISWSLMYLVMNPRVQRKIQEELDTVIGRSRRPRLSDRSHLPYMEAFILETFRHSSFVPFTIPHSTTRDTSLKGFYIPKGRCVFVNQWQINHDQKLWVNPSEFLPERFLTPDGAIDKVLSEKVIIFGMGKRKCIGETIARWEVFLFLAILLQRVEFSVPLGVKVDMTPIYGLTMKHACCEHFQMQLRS

[3] = target: T2, CYP2C9 (Homo sapiens, UniProt P11712); test: Incubation of [3H]filapixant with human recombinant CYP2C9 (Supersomes); format: in vitro ADME; details: 1 µM [3H]filapixant, CYP2C9, 60 min
T2 construct: purchased
T2 sequence (P11712 whole entry): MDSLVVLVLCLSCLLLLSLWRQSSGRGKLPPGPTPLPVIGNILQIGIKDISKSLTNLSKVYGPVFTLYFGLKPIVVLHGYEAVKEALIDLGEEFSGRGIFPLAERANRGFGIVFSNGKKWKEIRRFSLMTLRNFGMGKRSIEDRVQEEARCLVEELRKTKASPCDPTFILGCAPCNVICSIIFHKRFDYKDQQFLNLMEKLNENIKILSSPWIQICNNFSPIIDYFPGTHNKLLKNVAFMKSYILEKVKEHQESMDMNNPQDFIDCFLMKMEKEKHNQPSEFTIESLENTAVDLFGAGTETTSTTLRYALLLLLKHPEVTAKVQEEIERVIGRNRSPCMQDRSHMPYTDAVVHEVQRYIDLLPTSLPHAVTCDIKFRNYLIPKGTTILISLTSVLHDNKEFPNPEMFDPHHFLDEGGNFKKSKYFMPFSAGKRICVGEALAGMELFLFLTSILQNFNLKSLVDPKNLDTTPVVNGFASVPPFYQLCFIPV

[4] = target: T3, CYP2C19 (Homo sapiens, UniProt P33261); test: Incubation of [3H]filapixant with human recombinant CYP2C19 (Supersomes); format: in vitro ADME; details: 1 µM [3H]filapixant, CYP2C19, 60 min
T3 construct: purchased
T3 sequence (P33261 whole entry): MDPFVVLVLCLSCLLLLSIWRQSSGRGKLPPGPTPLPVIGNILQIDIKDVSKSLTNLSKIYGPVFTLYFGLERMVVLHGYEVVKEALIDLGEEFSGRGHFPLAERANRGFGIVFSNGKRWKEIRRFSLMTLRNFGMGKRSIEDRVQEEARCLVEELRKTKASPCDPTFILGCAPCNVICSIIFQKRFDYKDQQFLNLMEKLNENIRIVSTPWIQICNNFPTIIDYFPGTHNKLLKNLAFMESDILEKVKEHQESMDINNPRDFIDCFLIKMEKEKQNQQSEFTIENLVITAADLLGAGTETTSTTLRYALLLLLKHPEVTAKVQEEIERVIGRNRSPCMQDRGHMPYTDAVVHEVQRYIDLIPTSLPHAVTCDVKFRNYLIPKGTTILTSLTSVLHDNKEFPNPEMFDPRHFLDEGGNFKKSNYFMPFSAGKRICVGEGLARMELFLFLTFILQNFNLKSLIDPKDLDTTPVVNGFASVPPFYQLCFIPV

[5] = target: T4, CYP2J2 (Homo sapiens, UniProt P51589); test: Incubation of filapixant with human recombinant CYP2J2 (Supersomes); format: in vitro ADME; details: 1 µM [3H]filapixant, CYP2J2, 60 min
T4 construct: purchased
T4 sequence (P51589 1-502): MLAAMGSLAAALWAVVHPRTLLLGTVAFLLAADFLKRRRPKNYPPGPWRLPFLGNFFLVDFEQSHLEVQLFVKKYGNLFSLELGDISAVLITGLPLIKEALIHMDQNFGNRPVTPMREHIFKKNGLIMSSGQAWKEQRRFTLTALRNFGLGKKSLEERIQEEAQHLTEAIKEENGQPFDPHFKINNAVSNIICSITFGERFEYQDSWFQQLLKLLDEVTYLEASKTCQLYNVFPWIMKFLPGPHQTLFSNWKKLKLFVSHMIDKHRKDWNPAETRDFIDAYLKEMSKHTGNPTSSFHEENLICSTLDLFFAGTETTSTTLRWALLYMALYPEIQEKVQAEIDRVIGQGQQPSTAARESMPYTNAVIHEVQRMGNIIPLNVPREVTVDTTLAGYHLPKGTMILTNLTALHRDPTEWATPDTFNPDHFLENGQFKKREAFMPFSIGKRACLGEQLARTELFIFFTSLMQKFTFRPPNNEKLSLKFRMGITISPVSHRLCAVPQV

[6] = target: T5, CYP3A4 (Homo sapiens, UniProt P08684); test: Incubation of filapixant with human recombinant CYP3A4 (Supersomes); format: in vitro ADME; details: for Remaining drug and formation of metabolites, Peak Area: 1 µM [3H]filapixant, CYP3A4, 60 min; for Vmax of metabolite formation: filapixant in recombinant human CYP3A4 (25 pmol/mL), 20 min incubation
T5 construct: purchased
T5 sequence (P08684 whole entry): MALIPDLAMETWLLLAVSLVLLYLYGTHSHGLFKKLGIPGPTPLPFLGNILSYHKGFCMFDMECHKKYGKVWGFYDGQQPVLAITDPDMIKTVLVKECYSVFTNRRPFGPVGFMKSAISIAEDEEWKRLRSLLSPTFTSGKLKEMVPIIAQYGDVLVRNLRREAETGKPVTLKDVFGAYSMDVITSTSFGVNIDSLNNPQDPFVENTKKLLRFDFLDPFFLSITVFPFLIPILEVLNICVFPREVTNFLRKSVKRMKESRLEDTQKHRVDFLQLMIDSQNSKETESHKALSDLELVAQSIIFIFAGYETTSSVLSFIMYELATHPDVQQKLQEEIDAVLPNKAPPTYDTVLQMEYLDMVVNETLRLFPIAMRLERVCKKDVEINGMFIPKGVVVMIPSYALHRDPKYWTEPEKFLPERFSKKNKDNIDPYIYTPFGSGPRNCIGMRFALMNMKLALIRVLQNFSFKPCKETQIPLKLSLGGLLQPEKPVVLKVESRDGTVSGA

[7] = Biotransformation and enzyme kinetics of filapixant in human liver microsomes; format: in vitro ADME; details: [3H]filapixant 1 µM, pooled human liver microsomes, 1 h of incubation, n = 1
Experimental: (§1) The incubations were analyzed by high-performance liquid chromatography (HPLC) with tandem mass spectroscopy (MS/MS) followed by off-line radioactivity detection to generate metabolite profiles and elucidate or confirm the structures of the metabolites formed.

[8] = Biotransformation of [3H]filapixant in human hepatocytes; format: in vitro ADME; details: [3H]filapixant 1 µM, 4 h of incubation, range in three batches
Experimental: as §1

[9] = Biotransformation and enzyme kinetics of filapixant in human liver microsomes; format: in vitro ADME; details: for Vmax of metabolite formation: filapixant in human liver microsomes (0.5 mg/mL), 30 min incubation; for Km at 30 min: human, human liver microsomes, probe filapixant (substrate), read-out: Km,app of metabolite formation
[10] = Depletion of 1 µM filapixant in human hepatocytes in absence and presence of CYP3A4 selective and pan-CYP inhibitors; format: in vitro ADME; details: 1 µM filapixant, in presence of the inhibitor
[11] = tested on: pan-CYP; test: as above; format: in vitro ADME; details: human, probe filapixant (1 µM, non-labeled), read-out: % of control CLint inhibited
[12] = patients; cited from earlier work
[13] = tested on: CYP3A4; test: Depletion of 1 µM filapixant in human hepatocytes in absence and presence of CYP3A4 selective and pan-CYP inhibitors; format: in vitro ADME; details: human, probe filapixant (1 µM, non-labeled), read-out: % of control CLint inhibited
[14] = Clinical drug-drug interaction study filapixant with itraconazole: pharmacokinetics; format: in vivo, human; details: plasma, study day 4, itraconazole 200 mg once daily oral solution
[15] = target: T6, CYP2D6 (Homo sapiens, UniProt P10635); test: Incubation of filapixant with human recombinant CYP2D6 (Supersomes); format: in vitro ADME; details: 1 µM [3H]filapixant, CYP2D6, 60 min
T6 construct: purchased
T6 sequence (P10635 whole entry): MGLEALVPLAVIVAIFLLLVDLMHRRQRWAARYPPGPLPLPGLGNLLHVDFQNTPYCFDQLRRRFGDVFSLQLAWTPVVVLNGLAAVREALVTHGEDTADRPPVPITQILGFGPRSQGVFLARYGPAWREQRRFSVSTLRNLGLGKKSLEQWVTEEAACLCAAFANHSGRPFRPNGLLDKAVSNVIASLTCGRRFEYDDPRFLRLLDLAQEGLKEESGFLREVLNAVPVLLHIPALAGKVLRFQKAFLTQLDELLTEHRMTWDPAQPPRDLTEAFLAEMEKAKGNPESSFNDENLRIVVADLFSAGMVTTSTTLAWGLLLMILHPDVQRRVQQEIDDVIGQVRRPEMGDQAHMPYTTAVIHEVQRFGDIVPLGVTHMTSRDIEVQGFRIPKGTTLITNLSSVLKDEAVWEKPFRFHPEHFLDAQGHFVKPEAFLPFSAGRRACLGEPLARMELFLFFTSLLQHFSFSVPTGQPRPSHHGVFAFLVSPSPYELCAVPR

[16] = insect, 1 h, 1 µM
[17] = target: T7, CYP2B6 (Homo sapiens, UniProt P20813); test: Incubation of [3H]filapixant with human recombinant CYP2B6 (Supersomes); format: in vitro ADME; details: 1 µM [3H]filapixant, CYP2B6, 60 min
T7 construct: purchased
T7 sequence (P20813 1-491): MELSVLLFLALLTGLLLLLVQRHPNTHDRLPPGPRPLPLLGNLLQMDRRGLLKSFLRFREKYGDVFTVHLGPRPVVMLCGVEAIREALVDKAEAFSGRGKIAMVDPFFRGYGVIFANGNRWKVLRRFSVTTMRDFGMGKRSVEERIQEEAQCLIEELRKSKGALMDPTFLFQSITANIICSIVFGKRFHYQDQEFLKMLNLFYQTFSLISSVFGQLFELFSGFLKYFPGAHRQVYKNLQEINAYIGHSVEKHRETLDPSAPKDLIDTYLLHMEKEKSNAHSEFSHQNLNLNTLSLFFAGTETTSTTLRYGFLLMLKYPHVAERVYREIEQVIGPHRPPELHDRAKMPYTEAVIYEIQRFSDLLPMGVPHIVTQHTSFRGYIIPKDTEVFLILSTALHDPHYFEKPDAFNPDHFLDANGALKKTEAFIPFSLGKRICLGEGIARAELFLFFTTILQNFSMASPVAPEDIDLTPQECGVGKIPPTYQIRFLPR

[18] = target: T8, CYP3A5 (Homo sapiens, UniProt P20815); test: Incubation of [3H]filapixant with human recombinant CYP3A5 (Supersomes); format: in vitro ADME; details: 1 µM [3H]filapixant, CYP3A5, 60 min
T8 construct: purchased
T8 sequence (P20815 whole entry): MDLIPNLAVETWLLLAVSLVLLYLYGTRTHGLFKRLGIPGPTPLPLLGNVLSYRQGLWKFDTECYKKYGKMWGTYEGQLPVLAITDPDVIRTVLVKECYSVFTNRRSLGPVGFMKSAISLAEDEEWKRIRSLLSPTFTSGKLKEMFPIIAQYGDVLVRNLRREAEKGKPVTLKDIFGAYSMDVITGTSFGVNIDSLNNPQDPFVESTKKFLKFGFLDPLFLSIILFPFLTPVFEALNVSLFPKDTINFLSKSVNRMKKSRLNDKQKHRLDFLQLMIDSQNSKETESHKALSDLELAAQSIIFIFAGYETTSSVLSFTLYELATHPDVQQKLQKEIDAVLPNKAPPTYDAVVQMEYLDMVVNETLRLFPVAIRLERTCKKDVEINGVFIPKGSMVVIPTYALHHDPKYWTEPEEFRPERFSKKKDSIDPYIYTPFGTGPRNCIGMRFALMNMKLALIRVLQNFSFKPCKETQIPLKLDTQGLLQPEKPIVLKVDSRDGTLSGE

[19] = target: T9, CYP4F2 (Homo sapiens, UniProt P78329); test: Incubation of [3H]filapixant with human recombinant CYP4F2 (Supersomes); format: in vitro ADME; details: 1 µM [3H]filapixant, CYP4F2, 60 min
T9 construct: purchased
T9 sequence (P78329 5-520): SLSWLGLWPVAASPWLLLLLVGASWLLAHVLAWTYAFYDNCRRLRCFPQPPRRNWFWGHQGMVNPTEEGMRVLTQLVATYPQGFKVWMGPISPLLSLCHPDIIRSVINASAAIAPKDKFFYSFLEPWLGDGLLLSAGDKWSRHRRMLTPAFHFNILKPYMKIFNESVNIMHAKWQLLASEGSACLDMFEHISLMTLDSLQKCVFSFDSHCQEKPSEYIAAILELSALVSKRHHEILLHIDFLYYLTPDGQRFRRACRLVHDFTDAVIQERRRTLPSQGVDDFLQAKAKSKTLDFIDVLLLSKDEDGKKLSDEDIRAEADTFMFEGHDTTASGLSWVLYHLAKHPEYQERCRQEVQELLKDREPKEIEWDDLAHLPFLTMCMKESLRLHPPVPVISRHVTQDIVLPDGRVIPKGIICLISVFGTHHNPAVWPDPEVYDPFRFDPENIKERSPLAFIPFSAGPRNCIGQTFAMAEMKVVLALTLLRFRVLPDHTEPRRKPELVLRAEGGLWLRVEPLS

For `CC[C@]1(C)C[C@@H](OC(=O)CSc2nnc(N)[nH]2)[C@]2(C)[C@H](C)CC[C@]3(CCC(=O)[C@H]32)[C@@H](C)[C@@H]1O` [azamulin], the “Effect of inhibitor on drug depletion of [3H]filapixant and formation of metabolites” value (from here on “Effect of inhibitor”) [1] was “inhibited”.
For `CNC[C@@H](O)COc1cc(C(=O)N[C@H](C)c2cnc(C(F)(F)F)nc2)cc(-c2ncc(C)s2)c1` [M-8], the “Remaining drug and formation of metabolites, Peak Area” value (from here on “Remaining drug and formation”) [2] was 0.7 % of Radioactivity, the “Remaining drug and formation” value [3] was 0.2 % of Radioactivity and the “Remaining drug and formation” value [4] was 0.2 % of Radioactivity. The “Remaining drug and formation” value [5] was 0.7 % of Radioactivity, the “Remaining drug and formation” value [6] was 3.4 % of Radioactivity and the “Vmax of metabolite formation” value [6] was 2.48E+04 peak area/pmol CYP/min. For the same molecule, the “Recovery of filapixant and metabolite formation, Liver Microsomes” value (shortened to “Recovery … Liver Microsomes”) [7] was 2.4 % of radioactivity, the “Recovery of filapixant and metabolite formation, Hepatocytes” value (from here on “Recovery … Hepatocytes”) [8] was 0–1.7 % of radioactivity and the “Vmax of metabolite formation” value [9] was 4.34E+04 peak area/pmol CYP/min. The Km at 30 min [9] was 28.5 µM.
For `Nn1nnc2ccccc21` [ABT, 1-Aminobenzotriazol], the “Reduction of apparent CLint of filapixant compared to untreated control” value (“Reduction” for short) [10] was 90 to 95% and the inhibition at 1000 µM [11] was 94.5%.
In the case of `Cc1cnc(-c2cc(O[C@@H]3CCOC3)cc(C(=O)N[C@H](C)c3cnc(C(F)(F)F)nc3)c2)s1` [eliapixant], the “Frequency of taste disturbances / taste-related side effects” value [12] is listed as “considerably reduced compared to gefapixant”.
For `COc1cc(C(C)C)c(Oc2cnc(N)nc2N)cc1S(N)(=O)=O` [gefapixant], the “Frequency of taste disturbances / taste-related side effects” value [12] is given as “high frequency”.
With `COCC(=O)O[C@]1(CCN(C)CCCc2nc3ccccc3[nH]2)CCc2cc(F)ccc2[C@@H]1C(C)C` [Mibefradil, mibefradil] the “Effect of inhibitor” value [1] was “inhibited”, the “Reduction” value [10] was 90 to 95% and the inhibition at 2 µM [13] was 95.6%.
For `CCC(C)n1ncn(-c2ccc(N3CCN(c4ccc(OCC5COC(Cn6cncn6)(c6ccc(Cl)cc6Cl)O5)cc4)CC3)cc2)c1=O` (centres unmarked) [Itraconazole, itraconazole], the “Effect of inhibitor” value [1] was “inhibited”, the “Reduction” value [10] was 90 to 95% and the inhibition at 2 µM [13] was 94.4%. For the same molecule, the “Mean maximum concentrations of itraconazole” value [14] was 1014.6 µg/L.
For `C[C@@H](NC(=O)c1cc(OC[C@H]2CN(C)CCO2)cc(-c2ncc(CO)s2)c1)c1cnc(C(F)(F)F)nc1` [M-3], the “Remaining drug and formation” value [2] was 2.9 % of Radioactivity, the “Remaining drug and formation” value [15] was 5.4 % of Radioactivity and the “Remaining drug and formation” value [5] was 0.9 % of Radioactivity. For the same molecule, the “Remaining drug and formation” value [6] was 0.5 % of Radioactivity, the “Recovery … Liver Microsomes” value [7] was 0.9 % of radioactivity and the “Recovery … Hepatocytes” value [8] was 0.4–0.8 % of radioactivity.
In the case of `Cc1cnc(-c2cc(OC[C@H](O)CN)cc(C(=O)N[C@H](C)c3cnc(C(F)(F)F)nc3)c2)s1` [M-11], the “Remaining drug and formation” value [6] is reported as 1.9 % of Radioactivity, the “Recovery … Hepatocytes” value [8] is reported as 0–0.3 % of radioactivity and the “Remaining drug and formation” value [16] is reported as 0.2 % of Radioactivity.
With `Cc1cnc(-c2cc(O)cc(C(=O)N[C@H](C)c3cnc(C(F)(F)F)nc3)c2)s1` [M-6] the “Remaining drug and formation” value [2] was 0.5 % of Radioactivity, the “Remaining drug and formation” value [17] was 0.4 % of Radioactivity and the “Remaining drug and formation” value [6] was 6.0 % of Radioactivity. For the same molecule, the “Vmax of metabolite formation” value [6] was 7.78E+04 peak area/pmol CYP/min, the “Remaining drug and formation” value [18] was 0.8 % of Radioactivity and the “Recovery … Liver Microsomes” value [7] was 4.4 % of radioactivity. The “Vmax of metabolite formation” value [9] was 1.32E+05 peak area/pmol CYP/min and the Km at 30 min [9] was 68 µM.
For `C[C@@H](NC(=O)c1cc(OC[C@H]2CN(C)CCO2)cc(-c2ncc(C(=O)O)s2)c1)c1cnc(C(F)(F)F)nc1` [M-5], the “Remaining drug and formation” value [3] was 0.2 % of Radioactivity, the “Remaining drug and formation” value [6] was 0.4 % of Radioactivity and the “Remaining drug and formation” value [19] was 0.5 % of Radioactivity. For the same molecule, the “Recovery … Hepatocytes” value [8] was 0–0.2 % of radioactivity.
With `Cc1cnc(-c2cc(OC[C@H]3CN(C)C(=O)CO3)cc(C(=O)N[C@H](C)c3cnc(C(F)(F)F)nc3)c2)s1` [M-4] the “Remaining drug and formation” value [2] was 6.5 % of Radioactivity, the “Remaining drug and formation” value [6] was 6.1 % of Radioactivity and the “Vmax of metabolite formation” value [6] was 9.20E+03 peak area/pmol CYP/min. The “Vmax of metabolite formation (Michaelis-Menten plot, Figure S7)” value ([6]; recombinant CYP3A4 25 pmol/mL, 20 min, rate axis: area metabolite/min/mg) was 9202, the “Remaining drug and formation” value [18] was 1.5 % of Radioactivity and the “Recovery … Liver Microsomes” value [7] was 7.6 % of radioactivity. The “Recovery … Hepatocytes” value [8] was 1.0–7.5 % of radioactivity, the “Vmax of metabolite formation” value [9] was 1.02E+04 peak area/pmol CYP/min and the “Vmax of metabolite formation (Michaelis-Menten plot, Figure S8)” value ([9]; human liver microsomes 0.5 mg/mL, 30 min, rate axis: area metabolite/min/mg) was 1.021e+4. It also gave a Km at 30 min [9] of 7.9 µM.
